Reference: ChEMBL document CHEMBL1201862, “PubChem BioAssay data set” (2004)
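Interpolation was linear, between the two tested concentrations surrounding the appropriate level; five concentrations were tested over 48 hours in 96-well plates. Here, GI50 denotes the concentration required for 50% inhibition of growth.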 Calls of active or inactive are those of the source. Cut-off read from the data, not from the text of the source: active = GI50 up to about 1.1 µM and inactive = higher.

Tests used:
Test in all cases: NCI tumour cell line growth inhibition, 48 h
NCI-H460 = tested on: NCI-H460
U-251 = tested on: U-251
SF-539 = tested on: SF-539
CCRF-CEM = tested on: CCRF-CEM
NCI-H522 = tested on: NCI-H522
HCT-116 = tested on: HCT-116
MOLT-4 = tested on: MOLT-4
SK-OV-3 = tested on: SK-OV-3
HCT-15 = tested on: HCT-15
SNB-75 = tested on: SNB-75
KM12 = tested on: KM12
NCI-H23 = tested on: NCI-H23
LOX IMVI = tested on: LOX IMVI
OVCAR-3 = tested on: OVCAR-3
OVCAR-5 = tested on: OVCAR-5
Malme-3M = tested on: Malme-3M
SF-268 = tested on: SF-268
UO-31 = tested on: UO-31
SK-MEL-28 = tested on: SK-MEL-28
OVCAR-8 = tested on: OVCAR-8

| SMILES | GI50 (NCI-H460) | GI50 (U-251) | GI50 (SF-539) | GI50 (CCRF-CEM) | GI50 (NCI-H522) | GI50 (HCT-116) | GI50 (MOLT-4) | GI50 (SK-OV-3) | GI50 (HCT-15) [µM] | GI50 (SNB-75) | GI50 (KM12) | GI50 (NCI-H23) | GI50 (LOX IMVI) | GI50 (OVCAR-3) | GI50 (OVCAR-5) | GI50 (Malme-3M) | GI50 (SF-268) | GI50 (UO-31) | GI50 (SK-MEL-28) | GI50 (OVCAR-8) |
| --- | --- | --- | --- | --- | --- | --- | --- | --- | --- | --- | --- | --- | --- | --- | --- | --- | --- | --- | --- | --- |
| O=C(O)c1cc2sc(C(=O)O)cc2s1 | > 100 µM (inactive) | > 100 µM (inactive) | > 100 µM (inactive) | > 100 µM (inactive) | > 100 µM (inactive) | > 100 µM (inactive) | > 100 µM (inactive) | > 100 µM (inactive) | > 100 | > 100 µM (inactive) | > 100 µM (inactive) | > 100 µM (inactive) | > 100 µM (inactive) | > 100 µM (inactive) | > 100 µM (inactive) | > 100 µM (inactive) | > 100 µM (inactive) | > 10 µM (inactive) |  |  |
| O=c1oc2ccccc2n1P(=O)(n1c(=O)oc2ccccc21)n1c(=O)oc2ccccc21 | > 100 µM (inactive) | > 100 µM (inactive) | > 100 µM (inactive) | > 100 µM (inactive) | > 100 µM (inactive) | > 100 µM (inactive) | > 100 µM (inactive) | > 100 µM (inactive) |  | 90.2 µM (inactive) | > 100 µM (inactive) | > 100 µM (inactive) | > 100 µM (inactive) | > 100 µM (inactive) | > 100 µM (inactive) | > 100 µM (inactive) | > 100 µM (inactive) | > 100 µM (inactive) | > 100 µM (inactive) |  |
| O=C1OC2(OC2c2ccc(Cl)cc2)c2ccccc21 (configuration not stated) | > 100 µM (inactive) |  | > 100 µM (inactive) | 51.5 µM (inactive) | 31.9 µM (inactive) | > 100 µM (inactive) | > 100 µM (inactive) | > 100 µM (inactive) | > 100 | 48.1 µM (inactive) | 71.1 µM (inactive) |  | 17.8 µM (inactive) | > 100 µM (inactive) | > 100 µM (inactive) | > 100 µM (inactive) | > 100 µM (inactive) | > 100 µM (inactive) | > 100 µM (inactive) | > 100 µM (inactive) |
| C=CCP(=O)(CC=C)C(Cl)Cl | > 100 µM (inactive) | > 100 µM (inactive) |  | > 100 µM (inactive) | > 100 µM (inactive) | > 100 µM (inactive) | > 100 µM (inactive) | > 100 µM (inactive) | > 100 | > 100 µM (inactive) |  | > 100 µM (inactive) | > 100 µM (inactive) | > 100 µM (inactive) | > 100 µM (inactive) |  |  | > 100 µM (inactive) | > 100 µM (inactive) | > 100 µM (inactive) |
| O=[N+]([O-])C(=C/c1ccccc1)/C(=C\c1ccccc1)[N+](=O)[O-] | 14.8 µM (inactive) | 15.6 µM (inactive) | 1.6 µM (inactive) | 1.71 µM (inactive) |  | 17.8 µM (inactive) | 3.2 µM (inactive) | 20 µM (inactive) |  | 18.4 µM (inactive) | 15.4 µM (inactive) | 15.2 µM (inactive) | 14.7 µM (inactive) | 19.5 µM (inactive) | 22 µM (inactive) |  | 26.7 µM (inactive) | 17.5 µM (inactive) | 15.9 µM (inactive) | 20 µM (inactive) |
| COc1cc2c(cc1OC)-c1cc3ccccc3c(=O)n1CC2 | 28.2 µM (inactive) | 16.4 µM (inactive) | 14.1 µM (inactive) | 25 µM (inactive) | 16.1 µM (inactive) | 10.4 µM (inactive) | 26.1 µM (inactive) | 13.3 µM (inactive) |  | 11.9 µM (inactive) | 13.2 µM (inactive) | 37.5 µM (inactive) | 10.3 µM (inactive) | 22 µM (inactive) | 31.8 µM (inactive) | 16.4 µM (inactive) | 24.9 µM (inactive) | 19.9 µM (inactive) | 27.7 µM (inactive) | 29 µM (inactive) |
| c1ccc(/N=C2\SC3=NCCN3\C2=N/c2ccccc2)cc1 | 20.7 µM (inactive) | 17.7 µM (inactive) |  | 2.68 µM (inactive) | 13.6 µM (inactive) | 13.6 µM (inactive) | 3.47 µM (inactive) | 34 µM (inactive) | 10 | 18 µM (inactive) | 15.9 µM (inactive) | 20.1 µM (inactive) |  | 18.1 µM (inactive) | 20.1 µM (inactive) | > 10 µM (inactive) |  | 13.5 µM (inactive) | 17 µM (inactive) | 25.9 µM (inactive) |
| Nc1n[nH]c2nc3ccccc3nc12 [QUINOXALINE1] | 84.7 µM (inactive) | > 100 µM (inactive) | 61.7 µM (inactive) | 34.4 µM (inactive) | 44.1 µM (inactive) | 31 µM (inactive) | 61.1 µM (inactive) | > 100 µM (inactive) | 75.2 | 37.1 µM (inactive) |  | > 100 µM (inactive) | 47 µM (inactive) | 62.4 µM (inactive) | 38 µM (inactive) | > 100 µM (inactive) | 66.4 µM (inactive) | 39.6 µM (inactive) | > 100 µM (inactive) | > 100 µM (inactive) |
